In US12697316B2, “Combination therapy with acetyl-leucine and miglustat” (INTRABIO LTD., priority 2019, dated 2026):

What was measured:
Npc1^−/− mice [1] = assay: CatWalk automated gait analysis in Npc1−/− mice; assay type: in vivo, mouse; conditions: Npc1−/− mice, gait analysis at 10 weeks of age
Protocol: (§1) BALBc/NPC ^h and Sandhoff mice were bred as heterozygotes to generate affected mice (Npc1^−/−, Hexb^−/−) and controls (Npc^+/+, Hexb^+/+). The mice were housed under non-sterile conditions, with food and water available ad libitum. All experiments were conducted using protocols approved by the UK Home Office Animal Scientific Procedures Act, 1986.
(§2) ADLL and enantiomers (ADLL: Molekula #73891210, ALL: Sigma Aldrich #441511, ADL: Sigma #A0876) were administered as dry admix in powdered mouse diet (PicoLab Rodent Diet 20/5053, LabDiet) at a dose of 0.1 g/kg/day for in vivo studies. Treatment groups for in vivo study consisted of at least 5 mice per group. In vitro studies were conducted with each compound dissolved in PBS to generate a 50 mM stock solution and diluted to a 1 mM working concentration in media (DMEM High Glucose-Gibco #10566016).
(§3) Miglustat (Monsanto/Oxford GlycoSciences) was administered as a dry solid mixed with powdered chow (600 mg/kg/day) (see above) alone or in combination with ADLL.
(§4) The weight and activity of each mouse was recorded weekly until reaching the humane endpoint (defined as a loss of 1 g body weight within 24 h). Gait analysis was performed using CatWalk 10.5 system (Noldus) according to the manufacturer's instructions and five runs were recorded per animal at each time point. The camera was set to 40 cm below the walkway, the walkway was approximately 4 cm wide, and detection settings set to camera gain 14.05 and green intensity 0.12. Motor function was measured using an accelerating NG Rota Rod for mice (Ugo Basile) starting from 1 rpm to 10 rpm, accelerating every 30 seconds by one rpm. Bar crossing experiments on Sandhoff animals were conducted to measure motor strength and coordination. The apparatus used was modified from published studies. Briefly, a metal bar (1.2 mm width and 26 cm in length) was suspended horizontally between two wooden supports 30 cm high over a cushioned surface and animals were allowed to grasp the center of the bar with forepaws only, the tail was released, and the clock was started. Latency to cross or fall from the bar was scored, with 120 sec, maximum, to termination of each trial. A score was given to each animal between +120 and −120. If crossing time was greater than 0, then score=120−CT; if falling time was greater than 0, the score=FT−120.

Npc1^−/− mice [2] = assay: Survival / life span of Npc1−/− mice; assay type: in vivo, mouse; conditions: Npc1−/− mice; ADLL 0.1 g/kg/day, miglustat 600 mg/kg/day in chow; untreated Npc1−/− 87 days
Protocol: as §1, §2, §3
as §4, with “Briefly, a metal bar (1.2 mm width and 26 cm in length) was suspended horizontally between two wooden supports 30 cm high over a cushioned surface and animals were allowed to grasp the center of the bar with forepaws only, the tail was released, and the clock was started.” left out, “A score was given to each animal between +120 and −120. If crossing time was greater than 0, then score=120−CT; if falling time was greater than 0, the score=FT−120.” left out

[3] = cited from earlier work

Question: For `CCCCN1C[C@H](O)[C@@H](O)[C@H](O)[C@H]1CO` [miglustat, 1,5-(butylimino)-1,5-dideoxy-D-glucitol], which Stand mean (Npc1^−/− mice [1]) is on record?
Answer: The Stand mean was “significantly improved”.

Question: And the “hind Duty Cycle percentages” value (Npc1^−/− mice [1])?
Answer: Its value is “showed no benefit”.

Question: What about the median survival (Npc1^−/− mice [2]) of the same compound?
Answer: The median survival was 117 days.

Question: What about the “adverse effects in the treatment subjects” value ([3]; NPC first-line therapy, Champion et al. 2010) of the same compound?
Answer: Its value is “causes unwanted weight loss and gastrointestinal disturbances”.

Question: What about the weight loss ([3]; known effect, through appetite suppression) of the same compound?
Answer: The weight loss was “known to cause weight loss through appetite suppression”.
